In one series the target is T1, hTLR8 (Homo sapiens, UniProt Q9NR97).
T1 construct: expressed in transfected cells; host or cells: HEK-Blue hTLR cells
T1 sequence (Q9NR97 27-1041): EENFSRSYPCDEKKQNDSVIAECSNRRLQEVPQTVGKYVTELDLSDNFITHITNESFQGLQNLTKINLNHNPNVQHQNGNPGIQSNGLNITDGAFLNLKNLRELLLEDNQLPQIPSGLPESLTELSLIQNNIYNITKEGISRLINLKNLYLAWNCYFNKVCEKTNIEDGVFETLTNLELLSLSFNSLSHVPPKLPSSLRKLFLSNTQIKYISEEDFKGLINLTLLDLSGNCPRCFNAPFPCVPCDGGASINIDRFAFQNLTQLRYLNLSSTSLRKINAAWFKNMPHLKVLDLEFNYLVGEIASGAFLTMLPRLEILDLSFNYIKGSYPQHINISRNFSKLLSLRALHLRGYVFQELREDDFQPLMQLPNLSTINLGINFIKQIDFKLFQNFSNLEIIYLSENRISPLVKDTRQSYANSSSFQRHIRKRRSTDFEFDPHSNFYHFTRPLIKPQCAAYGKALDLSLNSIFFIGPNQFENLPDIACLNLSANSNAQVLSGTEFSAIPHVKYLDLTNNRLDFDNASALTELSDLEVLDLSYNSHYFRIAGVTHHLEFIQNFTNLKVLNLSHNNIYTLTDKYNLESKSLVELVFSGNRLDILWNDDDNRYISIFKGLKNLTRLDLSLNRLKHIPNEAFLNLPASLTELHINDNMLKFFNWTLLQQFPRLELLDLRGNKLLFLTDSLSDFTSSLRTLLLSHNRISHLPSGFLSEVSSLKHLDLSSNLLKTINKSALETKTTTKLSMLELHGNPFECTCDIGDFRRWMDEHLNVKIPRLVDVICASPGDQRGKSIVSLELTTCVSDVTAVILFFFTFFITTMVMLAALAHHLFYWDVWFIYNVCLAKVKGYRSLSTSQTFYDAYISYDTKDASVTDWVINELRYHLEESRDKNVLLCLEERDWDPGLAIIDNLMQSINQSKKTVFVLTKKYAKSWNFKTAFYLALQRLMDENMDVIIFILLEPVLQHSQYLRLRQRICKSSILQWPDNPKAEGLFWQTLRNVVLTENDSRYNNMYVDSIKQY
In words: agonistic activity on hTLR8, HEK-Blue hTLR cells, SEAP reporter (QUANTI-Blue). The following applies: HEK-Blue hTLR cells, SEAP reporter, OD650, cultured 1 day; read-out: TLR 8 EC50. It counts as cell-based. The procedure: Experiments on the agonistic activity of TLR7 and TLR8 by the compounds in vitro
(§1) The compound was diluted with 1:3 series with DMSO for 9 concentration points, duplicated wells, and added to 96-well plate with Echo.
(§2) The HEK-Blue™ hTLR cells were suspended in the culture medium and then seeded into a 96-well plate containing the compound at a density of 50,000 cells/well. Cells were cultured at 5% CO2 and 37° C. for 1 day. The final concentration of DMSO in the cell culture medium was 0.5%.
20 uL cell culture supernatant was taken, according to the QUANTI-Blue instructions, the reporter gene SEAP in the supernatant was detected, and the OD650 signal value was read with a microplate reader to calculate the agonist activity of the compound on the hTLR7 and hTLR8.
(§3) The EC50 and CC50 values of the compound were calculated by GraphPad Prism software, and the fitting curve was plotted.

Another series relates to HEK-Blue™ hTLR cells. In words: cytotoxicity, cell viability by CellTiter-Glo. The following applies: cultured 1 day. It counts as cell-based, human. The procedure:
as §1, §2
According to the CellTiter-Glo instructions, the cell viability was measured, and the Luminescence signal value was read by the microplate reader, which was used to calculate the cytotoxicity of the compound.
as §3
(In general: Cellular ATP, detected with luciferase, serves as a proxy for viable cell number.)

Regarding `CCOCc1nc2c(N)nc3ccccc3c2n1C[C@@H](C)OP(=O)(N[C@@H](C)C(=O)OC(C)C)Oc1cccc2ccccc12` (single isomer, unassigned) [Example 5B], on hTLR8, the EC50 stood at 17 nM. For the same compound, the CC50 with HEK-Blue™ hTLR cells was over 30000 nM.

The EC50 is the concentration giving half of the maximal effect. The term CC50 denotes the concentration giving 50% cytotoxicity. High values mean better tolerance by the cells, low ones harm at low concentration.

The values are drawn from patent US20230008368A1, “IMIDAZOQUINOLINE SUBSTITUTED PHOSPHORIC ESTER AGONIST, AND PREPARATION THEREFOR AND APPLICATION THEREOF” (SUZHOU ZELGEN BIOPHARMACEUTICALS CO., LTD., priority 2019, published 2023).
